Assay results taken from patent US20190298621A1, “METHODS OF TREATMENT OF THE DENTAL PULP AND FILLING ROOT CANALS USING ANTI INFLAMMATORY RINSE SOLUTION AND FILLING COMPOSITION” (DENTSPLY SIRONA Inc., priority 2018, published 2019).

Test: Anti-inflammatory agent solubility in solvents
Assay type: physicochemical
Conditions: for Solvent (anti-inflammatory agent solubility in solvents): solvent in which the agent is miscible, ambient conditions
Protocol: An anti-inflammatory rinse solution was prepared by mixing anti-inflammatory agent in a solvent in which they are miscible in a vial under ambient conditions as shown in Table 2.

Compound	Solvent (anti-inflammatory agent solubility in solvents)	solubility in water
O=C(/C=C/c1ccccc1)c1ccccc1 [Chalcone]	Ethanol	–
C=CCc1ccc(O)c(OC)c1 [Eugenol]	Ethanol	partially soluble in water

Second part, the compound after the results:

Solvent (anti-inflammatory agent solubility in solvents)	solubility in water	Compound
–	partially soluble in water	CC(C)Cc1ccc(C(C)C(=O)O)cc1 (stereo not shown) [Ibuprofen]
Ethanol	insoluble in water	Cc1c(C)c2c(c(C)c1O)CC[C@@](C)(CCC[C@H](C)CCC[C@H](C)CCCC(C)C)O2 [Vitamin E, α-tocopherol]
Water	–	OC[C@@H](O)[C@H](O)[C@@H](O)CO [Xylitol]
